System: patients with unresectable HCC
Assay: Open-label phase 3 study, safety and side-effect profile (CTCAE v4.0)
[1] = Any grade, listed as lenvatinib

Text: Randomization was stratified according to region (Asia-Pacific or Western regions), macroscopic portal vein invasion and/or extrahepatic spread (yes or no), Eastern Cooperative Oncology Group performance status (0 or 1), and body weight (<60 kg or ≥60 kg).
Safety assessments included recording of vital signs, hematologic and biochemical laboratory testing, urinalysis, and electrocardiography.

Compound: COc1cc2nccc(Oc3ccc(NC(=O)NC4CC4)c(Cl)c3)c2cc1C(N)=O [Lenvatinib, 4-(3-chloro-4(cyclopropylaminocarbonyl)aminophenoxy)-7-methoxy-6-quinolinecarboxamide]
- TEAE: Alopecia (12 mg starting dose): 9 (2.8) n (%)
- TEAE: Ascites (12 mg starting dose): 47 (14.5) n (%)
- TEAE: Aspartate aminotransferase increased (12 mg starting dose): 44 (13.5) n (%)
- TEAE: Asthenia (12 mg starting dose): 40 (12.3) n (%)
- TEAE: Back pain (12 mg starting dose): 39 (12.0) n (%)
- TEAE: Blood bilirubin increased (12 mg starting dose): 48 (14.8) n (%)
- TEAE: Constipation (12 mg starting dose): 57 (17.5) n (%)
- TEAE: Decreased appetite (12 mg starting dose): 112 (34.5) n (%)
- TEAE: Diarrhea (12 mg starting dose): 131 (40.3) n (%)
- TEAE: Dysphonia (12 mg starting dose): 85 (26.2) n (%)
- TEAE: Edema peripheral (12 mg starting dose): 43 (13.2) n (%)
- TEAE: Fatigue (12 mg starting dose): 99 (30.5) n (%)
- TEAE: Hypertension (12 mg starting dose): 136 (41.8) n (%)
- TEAE: Hypothyroidism (12 mg starting dose): 53 (16.3) n (%)
- TEAE: Nausea (12 mg starting dose): 69 (21.2) n (%)
- TEAE: Palmar-plantar erythrodysesthesia syndrome (12 mg starting dose): 93 (28.6) n (%)
- TEAE: Platelet count decreased (12 mg starting dose): 61 (18.8) n (%)
- TEAE: Proteinuria (12 mg starting dose): 80 (24.6) n (%)
- TEAE: Pyrexia (12 mg starting dose): 45 (13.8) n (%)
- TEAE: Rash (12 mg starting dose): 28 (8.6) n (%)
- TEAE: Stomatitis (12 mg starting dose): 34 (10.5) n (%)
- TEAE: Vomiting (12 mg starting dose): 55 (16.9) n (%)
- TEAE: Weight decreased (12 mg starting dose): 104 (32.0) n (%)
- TEAE: Dysphonia (Any grade): (23.7) %
- TEAE: Proteinuria (Any grade): (24.6) %
- TEAE: decreased weight (Any grade): (30.9) %
- TEAE: Dysphonia [1]: 23.7%
- TEAE: Hypertension [1]: 42.2%
- TEAE: Hypothyroidism [1]: 16.4%
- TEAE: Proteinuria [1]: 24.6%
- Primary reason for discontinuation of treatment: Adverse event (Full Analysis Set): 63 (13.2) n (%)
- most common adverse reactions, in order of decreasing frequency (HCC subjects): hypertension, fatigue, diarrhea, decreased appetite, arthralgia/myalgia, and decreased weight
- adverse event rate adjusted by patient-years (TEAEs of grade 3 or higher): 3.2
- adverse event rate adjusted by patient-years (all TEAEs): 18.9
- Dose modification: AST increased (in vivo): 1.9%
- Dose modification: ascites (in vivo): 2.1%
- Dose modification: hepatic encephalopathy (in vivo): 4.2%
- Dose modification: neutrophil count decreased (in vivo): 2.3%
- Dose modification: pyrexia (in vivo): 2.5%
- Dose modification: vomiting (in vivo): 2.5%
- Dose modification: weight decreased (in vivo): 4.2%
- Dose reduction/interruption: Gastrointestinal disorders (in vivo): 18.3%
- Dose reduction/interruption: General disorders and administration site conditions (in vivo): 14.1%
- Dose reduction/interruption: Investigations (in vivo): 17.0%
- Dose reduction/interruption: Metabolism and nutrition disorders (in vivo): 10.9%
- Dose reduction/interruption: PPE syndrome (in vivo): 5.3%
- Dose reduction/interruption: decreased appetite (in vivo): 7.6%
- Dose reduction/interruption: diarrhea (in vivo): 7.6%
- Dose reduction/interruption: fatigue (in vivo): 5.7%
- Dose reduction/interruption: hypertension (in vivo): 6.1%
- Dose reduction/interruption: proteinuria (in vivo): 6.9%
- Treatment-emergent adverse events of grade 3 or higher, patients (in vivo): 75.0%
- Treatment-emergent adverse events, patients (in vivo): 98.7%
- WBC count deceased, adjusted by treatment duration (in vivo): 0.25 episodes per SY
- dysphonia, adjusted by treatment duration (in vivo): 0.4 episodes per SY
- hepatic encephalopathy, adjusted by treatment duration (in vivo): 0.17 episodes per SY
- hypothyroidism, adjusted by treatment duration (in vivo): 0.24 episodes per SY
- neutrophil count decreased, adjusted by treatment duration (in vivo): 0.21 episodes per SY
- proteinuria, adjusted by treatment duration (in vivo): 0.5 episodes per SY
- subjects without a TEAE (in vivo): 6 subjects
- AEs leading to dose reduction or interruption, subjects (unadjusted for treatment duration): 61.8%
- Dose reduction/interruption: Abdominal pain (whole arm): 6 (1.3) n (%)
- Dose reduction/interruption: Abdominal pain upper (whole arm): 5 (1.1) n (%)
- Dose reduction/interruption: Alanine aminotransferase increased (whole arm): 6 (1.3) n (%)
- Dose reduction/interruption: Anemia (whole arm): 3 (0.6) n (%)
- Dose reduction/interruption: Ascites (whole arm): 10 (2.1) n (%)
- Dose reduction/interruption: Aspartate aminotransferase increased (whole arm): 9 (1.9) n (%)
- Dose reduction/interruption: Asthenia (whole arm): 16 (3.4) n (%)
- Dose reduction/interruption: Blood and lymphatic system disorders (whole arm): 16 (3.4) n (%)
- Dose reduction/interruption: Blood bilirubin increased (whole arm): 20 (4.2) n (%)
- Dose reduction/interruption: Decreased appetite (whole arm): 36 (7.6) n (%)
- Dose reduction/interruption: Dehydration (whole arm): 6 (1.3) n (%)
- Dose reduction/interruption: Diarrhea (whole arm): 36 (7.6) n (%)
- Dose reduction/interruption: Dyspnea (whole arm): 8 (1.7) n (%)
- Dose reduction/interruption: Edema peripheral (whole arm): 6 (1.3) n (%)
- Dose reduction/interruption: Esophageal varices hemorrhage (whole arm): 5 (1.1) n (%)
- Dose reduction/interruption: Fatigue (whole arm): 27 (5.7) n (%)
- Dose reduction/interruption: Gamma-glutamyltransferase increased (whole arm): 7 (1.5) n (%)
- Dose reduction/interruption: Gastrointestinal disorders (whole arm): 87 (18.3) n (%)
- Dose reduction/interruption: General disorders and administration site conditions (whole arm): 67 (14.1) n (%)
- Dose reduction/interruption: Hepatic encephalopathy (whole arm): 20 (4.2) n (%)
- Dose reduction/interruption: Hepatic function abnormal (whole arm): 2 (0.4) n (%)
- Dose reduction/interruption: Hepatobiliary disorders (whole arm): 27 (5.7) n (%)
- Dose reduction/interruption: Hypertension (whole arm): 29 (6.1) n (%)
- Dose reduction/interruption: Hyponatremia (whole arm): 5 (1.1) n (%)
- Dose reduction/interruption: Investigations (whole arm): 81 (17.0) n (%)
- Dose reduction/interruption: Malaise (whole arm): 5 (1.1) n (%)
- Dose reduction/interruption: Metabolism and nutrition disorders (whole arm): 52 (10.9) n (%)
- Dose reduction/interruption: Musculoskeletal and connective tissue disorders (whole arm): 18 (3.8) n (%)
- Dose reduction/interruption: Myalgia (whole arm): 5 (1.1) n (%)
- Dose reduction/interruption: Nausea (whole arm): 16 (3.4) n (%)
- Dose reduction/interruption: Nervous system disorders (whole arm): 35 (7.4) n (%)
- Dose reduction/interruption: Neutropenia (whole arm): 6 (1.3) n (%)
- Dose reduction/interruption: Neutrophil count decreased (whole arm): 11 (2.3) n (%)
- Dose reduction/interruption: Palmar-plantar erythrodysesthesia syndrome (whole arm): 25 (5.3) n (%)
- Dose reduction/interruption: Platelet count decreased (whole arm): 22 (4.6) n (%)
- Dose reduction/interruption: Proteinuria (whole arm): 33 (6.9) n (%)
- Dose reduction/interruption: Pyrexia (whole arm): 12 (2.5) n (%)
- Dose reduction/interruption: Rash (whole arm): 2 (0.4) n (%)
- Dose reduction/interruption: Rash maculo-papular (whole arm): 0 (0.0) n (%)
- Dose reduction/interruption: Renal and urinary disorders (whole arm): 40 (8.4) n (%)
- Dose reduction/interruption: Respiratory, thoracic and mediastinal disorders (whole arm): 16 (3.4) n (%)
- Dose reduction/interruption: Skin and subcutaneous tissue disorders (whole arm): 28 (5.9) n (%)
- Dose reduction/interruption: Stomatitis (whole arm): 6 (1.3) n (%)
- Dose reduction/interruption: Thrombocytopenia (whole arm): 6 (1.3) n (%)
- Dose reduction/interruption: Vascular disorders (whole arm): 33 (6.9) n (%)
- Dose reduction/interruption: Vomiting (whole arm): 12 (2.5) n (%)
- Dose reduction/interruption: Weight decreased (whole arm): 20 (4.2) n (%)
- Dose reduction/interruption: White blood cell count decreased (whole arm): 6 (1.3) n (%)
- Subjects with Any TEAEs (whole arm): 470 (98.7) n (%)
- Subjects with any TEAEs leading to Dose Reduction or Interruption (whole arm): 294 (61.8) n (%)
- TEAE: Abdominal pain (whole arm): 81 (17.0) n (%)
- TEAE: Abdominal pain upper (whole arm): 58 (12.2) n (%)
- TEAE: Alanine aminotransferase increased (whole arm): 53 (11.1) n (%)
- TEAE: Alopecia (whole arm): 14 (2.9) n (%)
- TEAE: Ascites (whole arm): 68 (14.3) n (%)
- TEAE: Aspartate aminotransferase increased (whole arm): 65 (13.7) n (%)
- TEAE: Asthenia (whole arm): 54 (11.3) n (%)
- TEAE: Back pain (whole arm): 50 (10.5) n (%)
- TEAE: Blood bilirubin increased (whole arm): 71 (14.9) n (%)
- TEAE: Constipation (whole arm): 76 (16.0) n (%)
- TEAE: Decreased appetite (whole arm): 162 (34.0) n (%)
- TEAE: Diarrhea (whole arm): 184 (38.7) n (%)
- TEAE: Dysphonia (whole arm): 113 (23.7) n (%)
- TEAE: Edema peripheral (whole arm): 66 (13.9) n (%)
- TEAE: Fatigue (whole arm): 141 (29.6) n (%)
- TEAE: Hypertension (whole arm): 201 (42.2) n (%)
- TEAE: Hypothyroidism (whole arm): 78 (16.4) n (%)
- TEAE: Nausea (whole arm): 93 (19.5) n (%)
- TEAE: Palmar-plantar erythrodysesthesia syndrome (whole arm): 128 (26.9) n (%)
- TEAE: Platelet count decreased (whole arm): 87 (18.3) n (%)
- TEAE: Proteinuria (whole arm): 117 (24.6) n (%)
- TEAE: Pyrexia (whole arm): 69 (14.5) n (%)
- TEAE: Rash (whole arm): 46 (9.7) n (%)
- TEAE: Stomatitis (whole arm): 45 (9.5) n (%)
- TEAE: Vomiting (whole arm): 77 (16.2) n (%)
- TEAE: Weight decreased (whole arm): 147 (30.9) n (%)

— patent US12226409B2, “Treatment of hepatocellular carcinoma” (Eisai R&D Management Co., Ltd., priority 2017, dated 2025)
